Legend:
[1] = Toxicity: LC50 (lethal concentration, 50%); format: in vivo; conditions: pure heptafluoroisobutyronitrile
[2] = Toxicity for humans and animals (statement)
Description: Currently, the most widely-used gas in that type of equipment is sulfur hexafluoride (SF6). That gas presents dielectric strength that is relatively high, good thermal conductivity, and low dielectric losses. It is chemically inert, non-toxic for humans and animals and, after being dissociated by an electric arc, it recombines quickly and almost completely. In addition, it is non-flammable and its price is still moderate.

[3] = prior art statement; cited from earlier work

| Structure (SMILES) | LC50 (lethal concentration, 50%) [1] | toxicity for humans [2] | toxicity for humans and animals [3] |
| --- | --- | --- | --- |
| N#CC(F)(C(F)(F)F)C(F)(F)F [Heptafluoroisobutyronitrile, 2,3,3,3-tetrafluoro-2-trifluoromethyl propanenitrile] | greater than 15000 ppm | no specific toxicity |  |
| FS(F)(F)(F)(F)F [SF6, sulfur hexafluoride] |  |  | non-toxic |
